{
  "source": "patent US20180296630A1",
  "about": "“METHODS AND COMPOSITIONS FOR PREVENTING OR TREATING OPHTHALMIC CONDITIONS” (Stealth BioTherapeutics Corp, priority 2012, published 2018)",
  "key": {"[1]": {"test_system": "several mammalian cell types", "conditions": "energy-independent manner; cited from earlier work"}, "HFD/STZ diabetic rats": {"test_system": "HFD/STZ diabetic rats", "assay": "Lens opacity (cataract) in HFD/STZ rat model", "assay_type": "in vivo, Sprague-Dawley rat", "conditions": "for Percentage of opacity / Percentage of severe opacity / Turbidity degree + (mildly opaque), number in group / Turbidity degree ++ (opaque), number in group / Turbidity degree +++ (moderately opaque), number in group / Turbidity degree ++++ (severely opaque), number in group / Turbidity degree − (transparent), number in group: HFD/STZ rat model", "description": "(§1) A rat model of diabetes was established by combination of 6-week HFD and low dose of STZ (30 mg/kg) injection or a single high dose of STZ (65 mg/kg) in SD rats. See generally, K. Srinivasan, B. Viswanad, Lydia Asrat, C. L. Kaul and P. Ramarao, Combination of high-fat diet-fed and low-dose streptozotocin-treated rat: A model for type 2 diabetes and pharmacological screening, Pharmacological Research, 52(4): 313-320, 2005. Rats of the same batch fed with normal chow (NRC) were used as a control."}, "STZ diabetic rats": {"test_system": "STZ diabetic rats", "assay": "Lens opacity (cataract) in STZ rat model", "assay_type": "in vivo, Sprague-Dawley rat", "conditions": "10 mg (Table 11: 10 mg/kg s.c.)", "description": "as §1"}, "[2]": {"test_system": "STZ and HFD/STZ diabetic rats", "assay": "Inner blood-retinal barrier function (Evans blue extravasation) in diabetic SD rats", "assay_type": "in vivo, Sprague-Dawley rat", "conditions": "compared to rats on a HFD not administered peptide", "description": "FIGS. 10A and 10B are charts showing the integrity of the blood-retinal barrier of normal rats (NRC), diabetic rats, and diabetic rats treated with Phe-D-Arg-Phe-Lys-NH2 (SS-20) or D-Arg-2′,6′-Dmt-Lys-Phe-NH2(SS-31), as analyzed by Evans blue extravasation. (A) diabetes induced by STZ; (B) diabetes induced by HFD/STZ.\nas §1\nThe effect of the aromatic-cationic peptides on the inner blood-retinal barrier function in the SD rat model was investigated."}},
  "note": "Non-standard residues stand in square brackets, D forms with d. No end group written: not given here.",
  "data": [
    {"substance": "2′,6′-Dmt-D-Arg-Phe-Lys-NH2", "values": [
      {"measurement": "penetration of the plasma membrane", "setting": "[1]", "result": "readily penetrates"}
    ]},
    {"substance": "F[dR]FK-NH2", "values": [
      {"measurement": "cataract formation in the lenses of diabetic rats", "setting": "HFD/STZ diabetic rats; HFD/STZ and STZ models (FIGS. 6 and 7, Tables 13 and 14)", "result": "prevention or reversal of cataract formation"},
      {"measurement": "Percentage of opacity", "setting": "HFD/STZ diabetic rats; 3 mg (Table 9: 3 mg/kg s.c.)", "result": 75.0, "unit": "%"},
      {"measurement": "Percentage of severe opacity", "setting": "HFD/STZ diabetic rats; 3 mg (Table 9: 3 mg/kg s.c.)", "result": 25.0, "unit": "%"},
      {"measurement": "Turbidity degree + (mildly opaque), number in group", "setting": "HFD/STZ diabetic rats; 3 mg (Table 9: 3 mg/kg s.c.)", "result": 1},
      {"measurement": "Turbidity degree ++ (opaque), number in group", "setting": "HFD/STZ diabetic rats; 3 mg (Table 9: 3 mg/kg s.c.)", "result": 1},
      {"measurement": "Turbidity degree +++ (moderately opaque), number in group", "setting": "HFD/STZ diabetic rats; 3 mg (Table 9: 3 mg/kg s.c.)", "result": 0},
      {"measurement": "Turbidity degree ++++ (severely opaque), number in group", "setting": "HFD/STZ diabetic rats; 3 mg (Table 9: 3 mg/kg s.c.)", "result": 1},
      {"measurement": "Turbidity degree − (transparent), number in group", "setting": "HFD/STZ diabetic rats; 3 mg (Table 9: 3 mg/kg s.c.)", "result": 1},
      {"measurement": "Percentage of opacity", "setting": "HFD/STZ diabetic rats; 10 mg (Table 9: 10 mg/kg s.c.)", "result": 75.0, "unit": "%"},
      {"measurement": "Percentage of severe opacity", "setting": "HFD/STZ diabetic rats; 10 mg (Table 9: 10 mg/kg s.c.)", "result": 0, "unit": "%"},
      {"measurement": "Turbidity degree + (mildly opaque), number in group", "setting": "HFD/STZ diabetic rats; 10 mg (Table 9: 10 mg/kg s.c.)", "result": 2},
      {"measurement": "Turbidity degree ++ (opaque), number in group", "setting": "HFD/STZ diabetic rats; 10 mg (Table 9: 10 mg/kg s.c.)", "result": 1},
      {"measurement": "Turbidity degree +++ (moderately opaque), number in group", "setting": "HFD/STZ diabetic rats; 10 mg (Table 9: 10 mg/kg s.c.)", "result": 0},
      {"measurement": "Turbidity degree ++++ (severely opaque), number in group", "setting": "HFD/STZ diabetic rats; 10 mg (Table 9: 10 mg/kg s.c.)", "result": 0},
      {"measurement": "Turbidity degree − (transparent), number in group", "setting": "HFD/STZ diabetic rats; 10 mg (Table 9: 10 mg/kg s.c.)", "result": 1},
      {"measurement": "Opacity degree ++++, number in group", "setting": "STZ diabetic rats", "result": 1},
      {"measurement": "Opacity degree +++, number in group", "setting": "STZ diabetic rats", "result": 0},
      {"measurement": "Opacity degree ++, number in group", "setting": "STZ diabetic rats", "result": 2},
      {"measurement": "Opacity degree +, number in group", "setting": "STZ diabetic rats", "result": 0},
      {"measurement": "Opacity degree −, number in group", "setting": "STZ diabetic rats", "result": 2},
      {"measurement": "Percentage of opacity", "setting": "STZ diabetic rats", "result": 60.0, "unit": "%"},
      {"measurement": "Percentage of severe opacity", "setting": "STZ diabetic rats", "result": 20.0, "unit": "%"},
      {"measurement": "inner blood-retinal barrier function", "setting": "[2]", "result": "improved"}
    ]}
  ]
}
